Results: patent publication US20090170804A1, “PIRFENIDONE/TOLL-LIKE RECEPTOR (TLR) AGONIST COMPOSITIONS AND METHODS FOR USING THEM TO STIMULATE PRODUCTION OF GRANULOCYTE COLONIZING STIMULATING FACTOR (G-CSF)” (priority 2005, published 2009)
Where two headings read alike, the source gives them in different places.

How the values were obtained:
Human PBMCs [1] = test: LPS-mediated cytokine induction in human PBMCs (BioRad Multiplex Cytokine Platform); format: cell-based; set-up: TNF-α release in PBMCs (FIG. 9) / G-CSF release in PBMCs (FIG. 9): dose or concentration left out as unconfirmed; conditions: for IC50: PBMC, 1 h pirfenidone pretreatment, LPS, optimal expression at 8 hours
Description: Human PBMCs (10^5 cells per well) were pretreated with pirfenidone (5 mM to 5 μM) for one hour in a 96-well plate and then stimulated with LPS ([…] to 0.01 ng/ml) for 1, 2, 8, or 24 hours at 37° C. Subsequently, cells were spun and supernatants collected and assayed for protein expression using the BioRad Multiplex Cytokine Platform, which enables 17 different cytokines to be analyzed simultaneously: G-CSF, GM-CSF, IFN-γ, IL-1β, IL-2, IL-4, IL-5, IL-6, IL-7, IL-8, IL-10, IL-12 (p70), IL-13, IL-17, MCP-1, MIP-1β, and TNF-α.

Human PBMCs [2] = test: p38 inhibitors: TLR-agonist-mediated TNF-α and G-CSF release from human PBMCs; format: cell-based; conditions: 1 h pretreatment, then LPS, Fibrin, LTA, PG or CpG for 24 hours
Description: The effect of various p38 inhibitors on LPS-mediated TNF-α and G-CSF release from human PBMCs was examined. Briefly, human PBMCs (10^5 cells per well) were pretreated with pirfenidone, a hydroxyl-pirfenidone derivative, SB202190 (commercially available p38 inhibitor), or SB203580 (commercially available p38 inhibitor) for one hour in a 96-well plate and then stimulated with lipopolysaccharide (LPS, binds TLR4), Fibrin (binds TLR4), lipoteichoic acid (LTA, binds TLR2), peptidoglycan (PG, binds TLR2), or CpG (bacterial DNA, binds TLR9) for 24 hours at 37° C. Subsequently, cells were spun and supernatants collected and assayed for G-CSF expression.
Each TLR agonist alone is set to 1 (positive control) and the subsequent release of G-CSF in the presence of p38 inhibitors is determined relative to the positive control.

[3] = in the presence of pirfenidone (lmM)

Row | TLR-induced G-CSF release (FIG. 12, fold induction relative to TLR agonist alone) (Human PBMCs [2]) | Compound | IC50 (Human PBMCs [1]; human PBMCs, read-out: pirfenidone IC50 for IL-1β (LPS-mediated cytokine induction)) [mM] | IC50 (Human PBMCs [1]; human PBMCs, read-out: pirfenidone IC50 for TNF-α (LPS-mediated cytokine induction)) [mM] | LPS-mediated release of G-CSF (Human PBMCs [1]; human PBMCs) | LPS-mediated release of GM-CSF (Human PBMCs [1]; human PBMCs) | LPS-mediated release of IFN-γ (Human PBMCs [1]; human PBMCs) | LPS-mediated release of IL-1β (Human PBMCs [1]; human PBMCs) | LPS-mediated release of IL-10 (Human PBMCs [1]; human PBMCs) | LPS-mediated release of MCP-1 (Human PBMCs [1]; human PBMCs) | LPS-mediated release of TNF-α (Human PBMCs [1]; human PBMCs) | constitutive (but not LPS-mediated) expression of IL-6 (Human PBMCs [1]; human PBMCs) | constitutive (but not LPS-mediated) expression of IL-8 (Human PBMCs [1]; human PBMCs) | constitutive (but not LPS-mediated) expression of MIP-1β (Human PBMCs [1]; human PBMCs) | LPS-induced expression of G-CSF augmented by (Human PBMCs [1]; [3]) [%] | LPS-induced expression of IL-10 augmented by (Human PBMCs [1]; [3]) [%] | TNF-α expression in PBMCs (FIG. 1) (Human PBMCs [1]; pirfenidone 185 μg/mL and LPS 1 μg/mL) | G-CSF release in PBMCs (FIG. 9) (Human PBMCs [1]; pirfenidone and LPS) | TNF-α release in PBMCs (FIG. 9) (Human PBMCs [1]; pirfenidone and LPS) | induction of expression of IL-2, IL-4, IL-5, IL-7, IL-12, IL-13, or IL-17 (Human PBMCs [1]; human PBMCs stimulated with LPS)
1 | augmented | Cc1ccc(=O)n(-c2ccccc2)c1 [pirfenidone, 5-methyl-1-phenyl-2-(1H)-pyridone] | ~2.5 | ~1 | augmented | inhibited | inhibited | inhibited | augmented | augmented | inhibited | inhibited | inhibited | inhibited | 100 | 35 | reduced | increased | decreased | 
2 |  | lipopolysaccharide [LPS] |  |  |  |  |  |  |  |  |  |  |  |  |  |  |  |  |  | did not induce
